From patent US10968215B2 (SHANGHAI HAIHE PHARMACEUTICAL CO., LTD., priority 2016, dated 2021) come the findings set out here.

A word on the IC50: it is the point on the concentration scale where inhibition reaches its midpoint.

One experiment deals with PRC2 complex (EZH2 Y641F/EED/SUZ12/RbAp48/AEBP2) (Homo sapiens (Human), UniProt Q15910, Y641F). Nature of the experiment: Activity of a compound to PRC2 complex (EZH2 Y641F), HTRF.
Sequence of PRC2 complex (EZH2 Y641F/EED/SUZ12/RbAp48/AEBP2) (Q15910 whole entry Y641F): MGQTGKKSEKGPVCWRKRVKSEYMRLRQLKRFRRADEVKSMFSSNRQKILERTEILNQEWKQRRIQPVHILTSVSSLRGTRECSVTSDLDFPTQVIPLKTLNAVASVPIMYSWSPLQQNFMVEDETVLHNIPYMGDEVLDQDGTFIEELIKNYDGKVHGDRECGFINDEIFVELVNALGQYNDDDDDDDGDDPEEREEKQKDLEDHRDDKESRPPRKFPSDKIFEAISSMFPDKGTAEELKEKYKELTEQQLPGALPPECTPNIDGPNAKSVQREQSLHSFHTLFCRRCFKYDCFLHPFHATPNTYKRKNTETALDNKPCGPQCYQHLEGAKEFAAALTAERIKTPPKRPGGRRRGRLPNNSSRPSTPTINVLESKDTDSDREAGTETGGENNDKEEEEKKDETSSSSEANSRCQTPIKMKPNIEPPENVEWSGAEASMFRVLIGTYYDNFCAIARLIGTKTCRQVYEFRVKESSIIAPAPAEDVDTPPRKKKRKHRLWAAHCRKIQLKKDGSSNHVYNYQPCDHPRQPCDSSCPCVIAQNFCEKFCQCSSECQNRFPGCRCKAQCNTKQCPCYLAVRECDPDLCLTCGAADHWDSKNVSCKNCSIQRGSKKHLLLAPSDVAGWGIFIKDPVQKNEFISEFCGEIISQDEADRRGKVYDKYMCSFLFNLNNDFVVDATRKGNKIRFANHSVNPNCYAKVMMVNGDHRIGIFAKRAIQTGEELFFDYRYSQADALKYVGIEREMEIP
Sequence of PRC2 complex (EZH2 Y641F/EED/SUZ12/RbAp48/AEBP2) (O75530 whole entry partner): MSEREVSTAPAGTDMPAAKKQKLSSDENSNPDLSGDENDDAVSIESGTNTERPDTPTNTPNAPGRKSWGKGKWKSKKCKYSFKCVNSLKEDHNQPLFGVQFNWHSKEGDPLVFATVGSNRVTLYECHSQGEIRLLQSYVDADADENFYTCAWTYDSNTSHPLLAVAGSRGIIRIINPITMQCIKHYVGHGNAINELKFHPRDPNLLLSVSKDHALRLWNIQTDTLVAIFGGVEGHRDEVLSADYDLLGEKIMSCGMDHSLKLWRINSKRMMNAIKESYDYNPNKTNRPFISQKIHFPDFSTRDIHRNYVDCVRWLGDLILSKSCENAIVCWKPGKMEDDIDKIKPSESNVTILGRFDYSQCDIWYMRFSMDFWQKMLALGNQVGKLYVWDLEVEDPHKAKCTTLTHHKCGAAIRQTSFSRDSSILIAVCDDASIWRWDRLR
Sequence of PRC2 complex (EZH2 Y641F/EED/SUZ12/RbAp48/AEBP2) (Q15022 whole entry partner): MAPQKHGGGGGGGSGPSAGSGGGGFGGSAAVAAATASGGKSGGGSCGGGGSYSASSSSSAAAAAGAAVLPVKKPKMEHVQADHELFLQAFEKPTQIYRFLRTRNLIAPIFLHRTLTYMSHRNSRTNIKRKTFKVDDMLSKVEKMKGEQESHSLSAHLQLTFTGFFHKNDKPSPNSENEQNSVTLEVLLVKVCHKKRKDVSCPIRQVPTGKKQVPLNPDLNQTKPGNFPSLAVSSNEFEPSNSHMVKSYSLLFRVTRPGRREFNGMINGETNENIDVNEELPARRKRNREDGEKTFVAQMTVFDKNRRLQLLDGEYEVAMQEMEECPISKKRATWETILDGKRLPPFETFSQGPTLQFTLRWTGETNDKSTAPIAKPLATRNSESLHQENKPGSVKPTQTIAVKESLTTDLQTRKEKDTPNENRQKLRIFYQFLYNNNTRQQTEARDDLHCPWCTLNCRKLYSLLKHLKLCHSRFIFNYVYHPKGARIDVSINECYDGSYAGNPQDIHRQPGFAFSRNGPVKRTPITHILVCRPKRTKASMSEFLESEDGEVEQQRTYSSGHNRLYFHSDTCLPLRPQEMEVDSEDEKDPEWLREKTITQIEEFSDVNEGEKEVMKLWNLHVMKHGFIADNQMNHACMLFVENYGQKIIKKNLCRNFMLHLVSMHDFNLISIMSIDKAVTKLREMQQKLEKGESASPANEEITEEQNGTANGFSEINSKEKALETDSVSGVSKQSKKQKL
Sequence of PRC2 complex (EZH2 Y641F/EED/SUZ12/RbAp48/AEBP2) (Q09028 whole entry partner): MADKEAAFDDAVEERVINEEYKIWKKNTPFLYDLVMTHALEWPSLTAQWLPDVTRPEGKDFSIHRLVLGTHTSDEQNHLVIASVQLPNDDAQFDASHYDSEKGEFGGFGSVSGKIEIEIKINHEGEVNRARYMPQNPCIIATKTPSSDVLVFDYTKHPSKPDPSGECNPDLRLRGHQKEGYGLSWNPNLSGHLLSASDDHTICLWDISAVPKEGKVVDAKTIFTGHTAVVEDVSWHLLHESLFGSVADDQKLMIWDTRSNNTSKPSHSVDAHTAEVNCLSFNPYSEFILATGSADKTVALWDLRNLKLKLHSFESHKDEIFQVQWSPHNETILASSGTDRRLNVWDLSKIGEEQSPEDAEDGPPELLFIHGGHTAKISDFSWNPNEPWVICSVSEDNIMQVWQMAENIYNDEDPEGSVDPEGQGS
Sequence of PRC2 complex (EZH2 Y641F/EED/SUZ12/RbAp48/AEBP2) (Q6ZN18 whole entry partner): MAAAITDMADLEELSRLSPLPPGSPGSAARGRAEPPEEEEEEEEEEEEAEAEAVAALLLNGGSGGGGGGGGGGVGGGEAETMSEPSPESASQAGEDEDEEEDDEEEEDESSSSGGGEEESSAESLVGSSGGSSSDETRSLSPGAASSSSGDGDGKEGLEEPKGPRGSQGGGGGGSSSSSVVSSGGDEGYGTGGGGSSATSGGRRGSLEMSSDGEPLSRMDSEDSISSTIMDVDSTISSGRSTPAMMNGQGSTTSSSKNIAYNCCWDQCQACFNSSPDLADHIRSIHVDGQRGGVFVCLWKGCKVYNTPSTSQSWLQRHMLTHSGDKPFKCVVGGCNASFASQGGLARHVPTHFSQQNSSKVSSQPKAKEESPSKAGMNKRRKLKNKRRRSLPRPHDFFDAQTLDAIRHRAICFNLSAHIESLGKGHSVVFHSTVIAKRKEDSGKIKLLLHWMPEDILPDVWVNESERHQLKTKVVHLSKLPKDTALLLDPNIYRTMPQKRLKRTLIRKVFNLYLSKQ
Details: not given
In general terms: Time-resolved FRET reads energy transfer from a long-lived donor to a nearby acceptor.
With `COc1cc(C)[nH]c(=O)c1CNC(=O)c1cc2c(-c3ccc(F)cc3)ccn2c(C(C)N2CCN(CC(F)(F)F)CC2)c1C` (centres unmarked) [Compound 162, 1-(4-fluorophenyl)-N-((4-methoxy-6-methyl-2-oxo-1,2-dihydropyridin-3-yl)methyl)-6-methyl-5-(1-(4-(2,2,2-trifluoroethyl)piperazin-1-yl)ethyl)indolizine-7-carboxamide], the IC50 is under 100 nM. The same measure, in the same setting: under `COc1cc(C)[nH]c(=O)c1CNC(=O)c1cc2c(-c3ccnc(N(C)C)c3)ccn2c(C(C)N2CCN(CC(F)(F)F)CC2)c1C` (centres unmarked) [Compound 170, 1-(2-(dimethylamino)pyridin-4-yl)-N-((4-methoxy-6-methyl-2-oxo-1,2-dihydropyridin-3-yl)methyl)-6-methyl-5-(1-(4-(2,2,2-trifluoroethyl)piperazin-1-yl)ethyl)indolizine-7-carboxamide] stands under 100 nM; under `CNc1cc(-c2ccn3c(C(C)N4CCN(CC(F)(F)F)CC4)c(C)c(C(=O)NCc4c(OC)cc(C)[nH]c4=O)cc23)ccn1` (centres unmarked) [Compound 180, N-((4-methoxy-6-methyl-2-oxo-1,2-dihydropyridin-3-yl)methyl)-6-methyl-1-(2-(methylamino)pyridin-4-yl)-5-(1-(4-(2,2,2-trifluoroethyl)piperazin-1-yl)ethyl)indolizine-7-carboxamide], under 100 nM.

The experiment is the same for the next values; noted with them: read-out: IC50 (EZH2_Y641F); EZH2 Y641F PRC2 complex, HTRF; class symbols.
For the compound `CNc1cc(-c2ccn3c([C@H](C)N4CCN(CC(F)(F)F)CC4)c(C)c(C(=O)NCc4c(OC)cc(C)[nH]c4=O)cc23)ccn1` (single isomer, unassigned) [Compound 182, (S)—N-((4-methoxy-6-methyl-2-oxo-1,2-dihydropyridin-3-yl)methyl)-6-methyl-1-(2-(methylamino)pyridin-4-yl)-5-(1-(4-(2,2,2-trifluoroethyl)piperazin-1-yl)ethyl)indolizine-7-formamide or (R)—N-((4-methoxy-6-methyl-2-oxo-1,2-dihydropyridin-3-yl)methyl)-6-methyl-1-(2-(methylamino)pyridin-4-yl)-5-(1-(4-(2,2,2-trifluoroethyl)piperazin-1-yl)ethyl)indolizine-7-formamide], the IC50 fell in the range of 100 to 1000 nM. In the case of `COc1cc(-c2ccn3c([C@H](C)N4CCN(CC(F)(F)F)CC4)c(C)c(C(=O)NCc4c(OC)cc(C)[nH]c4=O)cc23)ccn1` (single isomer, unassigned) [Compound 194, (S)—N-((4-methoxy-6-methyl-2-oxo-1,2-dihydropyridin-3-yl)methyl)-1-(2-methoxypyridin-4-yl)-6-methyl-5-(1-(4-(2,2,2-trifluoroethyl)piperazin-1-yl)ethyl)indolizine-7-carboxamide or (R)—N-((4-methoxy-6-methyl-2-oxo-1,2-dihydropyridin-3-yl)methyl)-1-(2-methoxypyridin-4-yl)-6-methyl-5-(1-(4-(2,2,2-trifluoroethyl)piperazin-1-yl)ethyl)indolizine-7-carboxamide], the IC50 was under 100 nM.

For `COc1cc(-c2ccn3c([C@H](C)N4CCN(CC(F)(F)F)CC4)c(C)c(C(=O)NCc4c(OC)cc(C)[nH]c4=O)cc23)ccn1` (single isomer, unassigned) [Compound 195, (S)—N-((4-methoxy-6-methyl-2-oxo-1,2-dihydropyridin-3-yl)methyl)-1-(2-methoxypyridin-4-yl)-6-methyl-5-(1-(4-(2,2,2-trifluoroethyl)piperazin-1-yl)ethyl)indolizine-7-carboxamide or (R)—N-((4-methoxy-6-methyl-2-oxo-1,2-dihydropyridin-3-yl)methyl)-1-(2-methoxypyridin-4-yl)-6-methyl-5-(1-(4-(2,2,2-trifluoroethyl)piperazin-1-yl)ethyl)indolizine-7-carboxamide], the IC50 was in the range of 100 to 1000 nM. `COc1cc(C)[nH]c(=O)c1CNC(=O)c1cc2c(-c3cnc(C)nc3)ccn2c([C@H](C)N2CCN(CC(F)(F)F)CC2)c1C` (single isomer, unassigned) [Compound 197, (S)—N-((4-methoxy-6-methyl-2-oxo-1,2-dihydropyridin-3-yl)methyl)-6-methyl-1-(2-methylpyrimidin-5-yl)-5-(1-(4-(2,2,2-trifluoroethyl)piperazin-1-yl)ethyl)indolizine-7-formamide or (R)—N-((4-methoxy-6-methyl-2-oxo-1,2-dihydropyridin-3-yl)methyl)-6-methyl-1-(2-methylpyrimidin-5-yl)-5-(1-(4-(2,2,2-trifluoroethyl)piperazin-1-yl)ethyl)indolizine-7-formamide]: the 50% inhibitory concentration (IC50) is under 100 nM. The same measure, in the same setting: in the case of `COc1cc(C)[nH]c(=O)c1CNC(=O)c1cc2c(-c3cnc(C)nc3)ccn2c([C@H](C)N2CCN(CC(F)(F)F)CC2)c1C` (single isomer, unassigned) [Compound 198, (S)—N-((4-methoxy-6-methyl-2-oxo-1,2-dihydropyridin-3-yl)methyl)-6-methyl-1-(2-methylpyrimidin-5-yl)-5-(1-(4-(2,2,2-trifluoroethyl)piperazin-1-yl)ethyl)indolizine-7-formamide or (R)—N-((4-methoxy-6-methyl-2-oxo-1,2-dihydropyridin-3-yl)methyl)-6-methyl-1-(2-methylpyrimidin-5-yl)-5-(1-(4-(2,2,2-trifluoroethyl)piperazin-1-yl)ethyl)indolizine-7-formamide] it was under 100 nM; in that of `COc1cc(C)[nH]c(=O)c1CNC(=O)c1cc2c(-c3ccc(C)nn3)ccn2c([C@H](C)N2CCN(CC(F)(F)F)CC2)c1C` (single isomer, unassigned) [Compound 200, (S)—N-((4-methoxy-6-methyl-2-oxo-1,2-dihydropyridin-3-yl)methyl)-6-methyl-1-(6-methylpyridazin-3-yl)-5-(1-(4-(2,2,2-trifluoroethyl)piperazin-1-yl)ethyl)indolizine-7-formamide or (R)—N-((4-methoxy-6-methyl-2-oxo-1,2-dihydropyridin-3-yl)methyl)-6-methyl-1-(6-methylpyridazin-3-yl)-5-(1-(4-(2,2,2-trifluoroethyl)piperazin-1-yl)ethyl)indolizine-7-formamide], under 100 nM.

For `COc1cc(C)[nH]c(=O)c1CNC(=O)c1cc2c(-c3ccc(C)nn3)ccn2c([C@H](C)N2CCN(CC(F)(F)F)CC2)c1C` (single isomer, unassigned) [Compound 201, (S)—N-((4-methoxy-6-methyl-2-oxo-1,2-dihydropyridin-3-yl)methyl)-6-methyl-1-(6-methylpyridazin-3-yl)-5-(1-(4-(2,2,2-trifluoroethyl)piperazin-1-yl)ethyl)indolizine-7-formamide or (R)—N-((4-methoxy-6-methyl-2-oxo-1,2-dihydropyridin-3-yl)methyl)-6-methyl-1-(6-methylpyridazin-3-yl)-5-(1-(4-(2,2,2-trifluoroethyl)piperazin-1-yl)ethyl)indolizine-7-formamide], the IC50 was under 100 nM. `COc1cc(-c2cc3cc(C(=O)NCc4c(C)cc(C)[nH]c4=O)c(C)c(C(C)OC)n3c2)cc(OC)c1OC` (centres unmarked) [Compound 151]: the IC50 is under 100 nM.

As for `COc1cc(C)[nH]c(=O)c1CNC(=O)c1cc2c(-c3ccc(N)nc3)ccn2c(C(C)N2CCN(CC(F)(F)F)CC2)c1C` (centres unmarked) [Compound 157], the IC50 was under 100 nM.

For the compound `COc1cc(C)[nH]c(=O)c1CNC(=O)c1cc2c(-c3c(C)noc3C)ccn2c(C(C)N2CCN(CC(F)(F)F)CC2)c1C` (centres unmarked) [Compound 161, 1-(3,5-dimethylisoxazol-4-yl)-N-((4-methoxy-6-methyl-2-oxo-1,2-dihydropyridin-3-yl)methyl)-6-methyl-5-(1-(4-(2,2,2-trifluoroethyl)piperazin-1-yl)ethyl)indolizine-7-carboxamide], the IC50 is under 100 nM. The same measure, in the same setting: under `CNc1ccc(-c2ccn3c(C(C)N4CCN(CC(F)(F)F)CC4)c(C)c(C(=O)NCc4c(OC)cc(C)[nH]c4=O)cc23)cn1` (centres unmarked) [Compound 163, N-((4-methoxy-6-methyl-2-oxo-1,2-dihydropyridin-3-yl)methyl)-6-methyl-1-(6-(methylamino)pyridin-3-yl)-5-(1-(4-(2,2,2-trifluoroethyl)piperazin-1-yl)ethyl)indolizine-7-carboxamide] stands under 100 nM. On the same count and under the same terms, under `COc1cc(C)[nH]c(=O)c1CNC(=O)c1cc2c(-c3cc(C)nc(C)c3)ccn2c(C(C)N2CCN(CC(F)(F)F)CC2)c1C` (centres unmarked) [Compound 173] stands under 100 nM; under `COc1cc(C)[nH]c(=O)c1CNC(=O)c1cc2c(-c3ccc(C)nc3C)ccn2c(C(C)N2CCN(CC(F)(F)F)CC2)c1C` (centres unmarked) [Compound 176], under 100 nM.

Consider `COc1cc(C)[nH]c(=O)c1CNC(=O)c1cc2c(-c3cccnc3N(C)C)ccn2c(C(C)N2CCN(CC(F)(F)F)CC2)c1C` (centres unmarked) [Compound 179, 1-(2-(dimethylamino)pyridin-3-yl)-N-((4-methoxy-6-methyl-2-oxo-1,2-dihydropyridin-3-yl)methyl)-6-methyl-5-(1-(4-(2,2,2-trifluoroethyl)piperazin-1-yl)ethyl)indolizine-7-carboxamide], for which the IC50 was under 100 nM. The same measure, in the same setting: under `COc1cc(C)[nH]c(=O)c1CNC(=O)c1cc2c(-c3ncnn3C)ccn2c(C(C)N2CCN(CC(F)(F)F)CC2)c1C` (centres unmarked) [Compound 183, N-((4-methoxy-6-methyl-2-oxo-1,2-dihydropyridin-3-yl)methyl)-6-methyl-1-(1-methyl-1H-1,2,4-triazol-5-yl)-5-(1-(4-(2,2,2-trifluoroethyl)piperazin-1-yl)ethyl)indolizine-7-carboxamide] stands under 100 nM.

The same experiment, now with this note: read-out: IC50 (EZH2_Y641F); EZH2 Y641F PRC2 complex, HTRF; numeric values.
Turning to `COc1cc(C)[nH]c(=O)c1CNC(=O)c1cc2c(-c3cn[nH]c3)ccn2c(C(C)N2CCOCC2)c1C` (centres unmarked) [Compound 152, N-((4-Methoxy-6-methyl-2-oxo-1,2-dihydropyridin-3-yl)methyl)-6-methyl-5-(1-morpholinylethyl)-1-(1H-pyrazol-4-yl)indolizine-7-carboxamide], the IC50 amounted to 2.65 nM. As to `COc1cc(C)[nH]c(=O)c1CNC(=O)c1cc2c(-c3ccn[nH]3)ccn2c(C(C)N2CCOCC2)c1C` (centres unmarked) [Compound 153, N-((4-Methoxy-6-methyl-2-oxo-1,2-dihydropyridin-3-yl)methyl)-6-methyl-5-(1-morpholinylethyl)-1-(1H-pyrazol-5-yl)indolizine-7-carboxamide], the IC50 was 2.15 nM.
